Measured values: PubChem BioAssay AID1963422 (Molecular Pharmacology Branch, DTP, NCI, 2024)

Tested on: 463943-066-T-J2-PDC complex spheroid growth
Assay: Anticancer human tumor 463943-066-T-J2-PDC patient-derived colon adenocarcinoma cell line growth inhibition [Asc]
Details: for viability, T/C: stronger effect = lower value
Procedure: Multicellular complex tumor spheroid response to apoptosis pathway targeting inhibitors Alrizomadlin, Pelcitoclax, and Dasminapant in combination with a variety of drugs and investigational agents in selected tumor cell lines
The MDM2 inhibitor alrizomadlin, the Bcl-2/Bcl-xL inhibitor pelcitoclax, and the IAPs inhibitor dasminapant were evaluated both individually and in combination with standard of care and investigational anticancer small molecules within a complex spheroid model of solid tumors. . Complex spheroids include a stromal component modeled by human endothelial cells (HUVEC) and fibroblasts modeled by human mesenchymal stem cells (MSCs). The concentration ranges selected for each drug and investigational agent were based upon clinically achievable concentrations if the clinical Cmax of the agent was known.
Compounds. The drugs and investigational agents: alrizomadlin (APG-115; NSC831270), pelcitoclax (APG-1252; NSC835773), dasminapant (APG-1387;NSC834197), TAK-243 (NSC785004), copanlisib (NSC809693), olaparib (NSC753686), talazoparib (NSC767125), cobimetinib (NSC 768068), eltanexor (KPT-8602, NSC 794443), abemaciclib (NSC 768073), sotorasib (NSC818433), adagrasib (NSC 831453), MRTX-1133 (NSC 836407), Iadademestat (ORY1001, NSC 806812), and RMC-4630 (NSC839698), were obtained from the NCI Developmental Therapeutics Program Chemical Repository. The FDA-approved anticancer drug set is available from the Developmental Therapeutics Program at https://dtp.cancer.gov/organization/dscb/obtaining/available plates.htm. […] The stock solutions were prepared in dimethyl sulfoxide (DMSO, Sigma-Aldrich, St. Louis, MO, cat. D2650) at 800-fold the tested concentration and stored at -70 degrees C prior to their use. All drugs and investigational agents were tested over a range starting from a high concentration at or near the clinical Cmax and decreasing in half-log increments. If the clinical Cmax for an agent had not been determined, the highest concentration tested was 10 microM.
The patient-derived cancer (PDC) cell lines include five colon adenocarcinomas: 186277-243-T-J2-PDC, 616215-338-R-J1-PDC, 439559-082-T-J2-PDC, 463943-066-T-J2-PDC, and 519858-162-T-J1-PDC; three pancreatic carcinomas: 323965-272-R-J2-PDC, 521955-158-R6-J3-PDC, and 521955-158-R2-J5-PDC; two uterine sarcomas: 327498-152-R-J2-PDC and 993429-296-R-J1-PDC; two rhabdomyosarcomas: 755483-174-R-J1-PDC and 772245-204-R-J1-PDC; two soft tissue sarcomas: 126254-015-R-J1-PDC and 494315-158-R-J1-PDC; two malignant fibrous histiocytomas: 317291-083-R-J1-PDC and 596521-263-R-J1-PDC; two breast carcinomas: 171881-019-R-J1-PDC and 885512-296-R-J2-PDC; and one ovarian carcinoma: 6556581-035-R-J-PDC were obtained from the NCI PDMR, (https://pdmr.cancer.gov). The established cell lines HSSY-2 synovial sarcoma (RRID:CVCL 8719), SYO-1 synovial sarcoma (RRID:CVCL_7146), MPNST malignant peripheral neural sheath tumor were obtained from the Sloan Kettering Institute. The following established cell lines were purchased from the American Type Culture Collection (ATCC, Manassas, VA), Sor the received from the NCI repository:, PANC-1 pancreatic carcinoma (CRL-1469, RRID:CVCL_0480), OVCAR-5 ovarian carcinoma (RRID:CVCL_1628), OVCAR-8 ovarian carcinoma (RRID:CVCL_1629), , MCF-7 breast carcinoma (CRL-12584, RRID:CVCL_0031), MDA-MB-231 breast carcinoma (CRL-12532, RRID:CVCL_0062), NCI-H1876 small cell lung carcinoma (CRL-5902, RRID:CVCL_1503), NCI-H510A small cell lung carcinoma (HTB-184, RRID:CVCL_1565), NCI-H1417 (CRL-5869, RRID:CVCL_1469), and NCI-H196 small cell lung carcinoma (CRL-5823, RRID:CVCL_1509). Dr. Peter Houghton (Greehey Children's Cancer Research Institute, University of Texas Health Science Center, San Antonio, TX) provided Rh-18 rhabdomyosarcoma (RRID:CVCL_1659). Pooled donor human umbilical vein endothelial cells (HUVEC, Lonza, cat. CC-2519) and human mesenchymal stem cells (hMSC, Lonza, cat. PT-2501) were purchased from Lonza (Walkersville, MD).
Cell Culture. […]

[1] = curve of first compound, second compound 0.00949 µM
[2] = curve of first compound, second compound 0.03 µM
[3] = curve of first compound, second compound 0.0949 µM
[4] = curve of first compound, second compound 0.3 µM
[5] = curve of first compound, second compound 0.949 µM
[6] = curve of first compound, second compound 3 µM
[7] = second compound 0.00949 µM, first compound 0.00316 µM
[8] = second compound 0.00949 µM, first compound 0.01 µM
[9] = second compound 0.00949 µM, first compound 0.0316 µM
[10] = second compound 0.00949 µM, first compound 0.1 µM
[11] = second compound 0.03 µM, first compound 0.00316 µM
[12] = second compound 0.03 µM, first compound 0.01 µM
[13] = second compound 0.03 µM, first compound 0.0316 µM
[14] = second compound 0.03 µM, first compound 0.1 µM
[15] = second compound 0.0949 µM, first compound 0.00316 µM
[16] = second compound 0.0949 µM, first compound 0.01 µM
[17] = second compound 0.0949 µM, first compound 0.0316 µM
[18] = second compound 0.0949 µM, first compound 0.1 µM
[19] = second compound 0.3 µM, first compound 0.00316 µM
[20] = second compound 0.3 µM, first compound 0.01 µM
[21] = second compound 0.3 µM, first compound 0.0316 µM
[22] = second compound 0.3 µM, first compound 0.1 µM
[23] = second compound 0.949 µM, first compound 0.00316 µM
[24] = second compound 0.949 µM, first compound 0.01 µM
[25] = second compound 0.949 µM, first compound 0.0316 µM
[26] = second compound 0.949 µM, first compound 0.1 µM
[27] = second compound 3 µM, first compound 0.00316 µM
[28] = second compound 3 µM, first compound 0.01 µM
[29] = second compound 3 µM, first compound 0.0316 µM
[30] = second compound 3 µM, first compound 0.1 µM
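Also: compound exposure lasted 7 days.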
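For viability, T/C in this document: 100% = DMSO vehicle control wells.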

In the case of CCN1C(C(=O)NC23CCC(C(=O)O)(CC2)CC3)C(c2cccc(Cl)c2F)C2(C(=O)Nc3cc(Cl)ccc32)C12CCCCC2 (stereo not given), the viability, T/C (compound 0.00949 µM) is reported as 98.6% [middle of 8 runs], the viability, T/C (compound 0.03 µM) is reported as 96.1% [middle of 8 runs] and the viability, T/C (compound 0.0949 µM) is reported as 88.7% [middle of 8 runs]. The viability, T/C (compound 0.3 µM) was 82.9% [middle of 8 runs], the viability, T/C (compound 0.949 µM) was 76.8% [middle of 8 runs] and the viability, T/C (compound 3 µM) was 77.5% [middle of 8 runs]. The IC50 (compound alone, run of 11/07/2022) was > 3000 nM and the IC50 (curve of compound) was > 3000 nM.

CCN1CCN(Cc2ccc(Nc3ncc(F)c(-c4cc(F)c5nc(C)n(C(C)C)c5c4)n3)nc2)CC1 + CCN1C(C(=O)NC23CCC(C(=O)O)(CC2)CC3)C(c2cccc(Cl)c2F)C2(C(=O)Nc3cc(Cl)ccc32)C12CCCCC2 was tested, and the IC50 [1] was > 1000 nM, the IC50 [2] was > 1000 nM and the IC50 [3] was > 1000 nM. For the same molecule, the IC50 [4] was > 1000 nM, the IC50 [5] was > 1000 nM and the IC50 [6] was > 1000 nM. The viability, T/C [7] was 99.6%, the viability, T/C [8] was 92.3% and the viability, T/C [9] was 91.4%. It also gave a viability, T/C [10] of 96.2%, a viability, T/C (second compound 0.00949 µM, first compound 0.316 µM) of 110% and a viability, T/C (second compound 0.00949 µM, first compound 1 µM) of 113%. For the same molecule, the viability, T/C [11] was 94.8%, the viability, T/C [12] was 93.2% and the viability, T/C [13] was 92.7%. It also gave a viability, T/C [14] of 92.5%, a viability, T/C (second compound 0.03 µM, first compound 0.316 µM) of 104% and a viability, T/C (second compound 0.03 µM, first compound 1 µM) of 109%. It also gave a viability, T/C [15] of 91.4%, a viability, T/C [16] of 90.8% and a viability, T/C [17] of 84.2%. It also gave a viability, T/C [18] of 92%, a viability, T/C (second compound 0.0949 µM, first compound 0.316 µM) of 96.2% and a viability, T/C (second compound 0.0949 µM, first compound 1 µM) of 106%. For the same molecule, the viability, T/C [19] was 85.6%, the viability, T/C [20] was 76.9% and the viability, T/C [21] was 80.3%. It also gave a viability, T/C [22] of 78%, a viability, T/C (second compound 0.3 µM, first compound 0.316 µM) of 88.9% and a viability, T/C (second compound 0.3 µM, first compound 1 µM) of 106%. It also gave a viability, T/C [23] of 74.5%, a viability, T/C [24] of 75.5% and a viability, T/C [25] of 76.2%. For the same molecule, the viability, T/C [26] was 75.4%, the viability, T/C (second compound 0.949 µM, first compound 0.316 µM) was 81.5% and the viability, T/C (second compound 0.949 µM, first compound 1 µM) was 99.4%. For the same molecule, the viability, T/C [27] was 72.5%, the viability, T/C [28] was 71.8% and the viability, T/C [29] was 71.8%. For the same molecule, the viability, T/C [30] was 74.4%, the viability, T/C (second compound 3 µM, first compound 0.316 µM) was 88.8% and the viability, T/C (second compound 3 µM, first compound 1 µM) was 103%.

In the case of Cn1ncnc1[C@H]1c2n[nH]c(=O)c3cc(F)cc(c23)N[C@@H]1c1ccc(F)cc1 + CCN1C(C(=O)NC23CCC(C(=O)O)(CC2)CC3)C(c2cccc(Cl)c2F)C2(C(=O)Nc3cc(Cl)ccc32)C12CCCCC2, the IC50 [1] is reported as > 100 nM, the IC50 [2] is reported as > 100 nM and the IC50 [3] is reported as > 100 nM. The IC50 [4] was > 100 nM, the IC50 [5] was > 100 nM and the IC50 [6] was > 100 nM. The viability, T/C (second compound 0.00949 µM, first compound 0.000316 µM) was 102%, the viability, T/C (second compound 0.00949 µM, first compound 0.001 µM) was 96.2% and the viability, T/C [7] was 106%. It also gave a viability, T/C [8] of 97.2%, a viability, T/C [9] of 100% and a viability, T/C [10] of 88.1%. It also gave a viability, T/C (second compound 0.03 µM, first compound 0.000316 µM) of 98.7%, a viability, T/C (second compound 0.03 µM, first compound 0.001 µM) of 98.6% and a viability, T/C [11] of 95.7%. The viability, T/C [12] was 98.2%, the viability, T/C [13] was 96.5% and the viability, T/C [14] was 90.1%. For the same molecule, the viability, T/C (second compound 0.0949 µM, first compound 0.000316 µM) was 101%, the viability, T/C (second compound 0.0949 µM, first compound 0.001 µM) was 89.1% and the viability, T/C [15] was 89.8%. The viability, T/C [16] was 89.6%, the viability, T/C [17] was 92.8% and the viability, T/C [18] was 79.1%. For the same molecule, the viability, T/C (second compound 0.3 µM, first compound 0.000316 µM) was 85.4%, the viability, T/C (second compound 0.3 µM, first compound 0.001 µM) was 85.3% and the viability, T/C [19] was 85.7%. It also gave a viability, T/C [20] of 85.6%, a viability, T/C [21] of 81.5% and a viability, T/C [22] of 79%. It also gave a viability, T/C (second compound 0.949 µM, first compound 0.000316 µM) of 75.4%, a viability, T/C (second compound 0.949 µM, first compound 0.001 µM) of 76.1% and a viability, T/C [23] of 72.5%. The viability, T/C [24] was 77.9%, the viability, T/C [25] was 75.4% and the viability, T/C [26] was 76.3%. For the same molecule, the viability, T/C (second compound 3 µM, first compound 0.000316 µM) was 71.1%, the viability, T/C (second compound 3 µM, first compound 0.001 µM) was 70.2% and the viability, T/C [27] was 75.3%. The viability, T/C [28] was 67.4%, the viability, T/C [29] was 73.2% and the viability, T/C [30] was 74%.

With CNC(C)C(=O)NC1CN(S(=O)(=O)c2cccc(S(=O)(=O)N3CCC4CCC(C(=O)NC(c5ccccc5)c5ccccc5)N4C(=O)C(NC(=O)C(C)NC)C3)c2)CCC2CCC(C(=O)NC(c3ccccc3)c3ccccc3)N2C1=O (stereo not given) the viability, T/C (compound 0.00316 µM) was 99.1% [middle of 6 runs], the viability, T/C (compound 0.01 µM) was 94.9% [middle of 6 runs] and the viability, T/C (compound 0.0316 µM) was 100% [middle of 6 runs]. For the same molecule, the viability, T/C (compound 0.1 µM) was 99.2% [middle of 6 runs], the viability, T/C (compound 0.316 µM) was 96.8% [middle of 6 runs] and the viability, T/C (compound 1 µM) was 92.2% [middle of 6 runs]. The IC50 (compound alone, run of 11/15/2022) was > 1000 nM and the IC50 (curve of compound) was > 1000 nM.
